Results taken from patent US4261921A, “Process for preparation of a crystalline insecticidal pyrethroid enantiomer pair” (priority 1979, dated 1981).

Tests used:
[1] = system: beet armyworm (Spodoptera exigua); assay: Topical Application Test, beet armyworm (BAW); format: in vivo
Protocol: (§1) The compound of this invention was tested for insecticidal activity by applying to the insect appropriate amounts of a toxicant solution containing 5 mg/ml of toxicant in acetone. The tests were read twenty-four hours after application of the toxicant solution and the percent kill determined. The commercial insecticide permethrin, 3-phenoxybenzyl (+) cis-trans-3-(2,2-dichlorovinyl)-2,2-dimethylcyclopropanecarboxylate, was used as the standard for comparison. Relative potency, based on a value of 1.0 for permethrin, was determined by comparing the LD50 for the test compound with that for the standard. The insects employed include southern armyworm (Spodoptera eridania [Cram.]), cabbage looper (Trichoplusia ni [Hubner]), Mexican bean beetle (Epilachna varivestis Muls.), beet armyworm (Spodoptera exigua [Hubner]), milkweed bug (Oncopeltus faciatus [Dallas]), tobacco budworm (Heliothis virescens [Fabricius]), and corn earworm (Heliothis zea [Boddle]).

[2] = system: corn earworm (Heliothis zea); assay: Topical Application Test, corn earworm (CEW); format: in vivo
Protocol: as §1

[3] = system: cabbage looper (Trichoplusia ni); assay: Topical Application Test, cabbage looper (CL); format: in vivo
Protocol: as §1

[4] = system: Mexican bean beetle (Epilachna varivestis); assay: Topical Application Test, Mexican bean beetle (MBB); format: in vivo
Protocol: as §1

[5] = system: milkweed bug (Oncopeltus fasciatus); assay: Topical Application Test, milkweed bug (MWB); format: in vivo
Protocol: as §1

[6] = system: southern armyworm (Spodoptera eridania); assay: Topical Application Test, southern armyworm (SAW); format: in vivo; settings: LD50 compared with permethrin = 1.0
Protocol: as §1

[7] = system: tobacco budworm (Heliothis virescens); assay: Topical Application Test, tobacco budworm (TBW); format: in vivo; settings: LD50 compared with permethrin = 1.0
Protocol: as §1

[8] = system: Mexican bean beetle (Epilachna varivestis); assay: Initial Contact (Foliar) Activity, Mexican bean beetle (MBB); format: in vivo
Protocol: (§2) The compound of the invention was dissolved in a solution of 90% water, 9.75% acetone; and 0.25% octylphenoxypolyethoxyethanol to give a solution having 512 ppm (w/w) active ingredient. Aliquots of this solution were diluted with an appropriate amount of water to provide solutions containing various concentrations of active ingredient. Test organisms and techniques were as follows: The activity against Mexican bean beetle (Epilachna varivestis Muls.) and southern armyworm (Spodoptera eridania [Cram.]) was evaluated by spraying the leaves of pinto bean plants with the test solution and infesting with 3rd instar larvae after the foliage had dried. The activity against the pea aphid (Acyrthosiphon pisum [Harris]) was evaluated on broad bean plants whose leaves were sprayed before infestation with adult aphids. To prevent escape of the insects from the test site, the complete test plant or the incised leaves were placed in capped paper cups. The tests were transferred to a holding room for an exposure period of 48 hours. At the end of this time the dead and living insects were counted, the LD50 was calculated, and the potency relative to the commercial insecticide permethrin, 3-phenoxybenzyl (+) cis,trans-3-(2,2-dichloroethenyl)-2,2-dimethylcyclopropanecarboxylate determined.

[9] = system: pea aphid (Acyrthosiphon pisum); assay: Initial Contact (Foliar) Activity, pea aphid (PA); format: in vivo
Protocol: as §2

[10] = system: southern armyworm (Spodoptera eridania); assay: Initial Contact (Foliar) Activity, southern armyworm (SAW); format: in vivo
Protocol: as §2

insects = assay: Topical Application Test, all insects, comparison with permethrin in words; format: in vivo; settings: topical tests, 24 h
Protocol: as §1

[11] = U.S. Pat. No. 4,136,195; cited from earlier work
[12] = LD50 compared with permethrin = 1.0

SMILES	Relative Potency [1, 12]	LD50 ([1]; read 24 h after application) [ng/insect]	Relative Potency [2, 12]	LD50 ([2]; read 24 h after application) [ng/insect]	Relative Potency [3, 12]	LD50 ([3]; read 24 h after application) [ng/insect]	Relative Potency [4, 12]	LD50 ([4]; read 24 h after application) [ng/insect]	Relative Potency [5, 12]	LD50 ([5]; read 24 h after application) [ng/insect]	Relative Potency [6]	Relative Potency [7]	LC50 ([8]; Mexican bean beetle 3rd instar larvae, pinto bean, 48 h exposure)	Relative Potency ([8]; Mexican bean beetle, 48 h, relative to permethrin)	LC50 ([9]; pea aphid adults, broad bean, 48 h exposure)	Relative Potency ([9]; pea aphid, 48 h, relative to permethrin)	LC50 ([10]; southern armyworm 3rd instar larvae, pinto bean, 48 h exposure)	Relative Potency ([10]; southern armyworm, 48 h, relative to permethrin)	insecticidal activity compared with permethrin (insects)	activity among the disclosed diastereomers [11]
CC1(C)[C@H](C(=O)O[C@H](C#N)c2cccc(Oc3ccccc3)c2)[C@@H]1C=C(Cl)Cl (relative stereo) [compound of the invention, racemic mixture of (S)-(cyano)(3-phenoxyphenyl)methyl (1R,cis)-3-(2,2-dichloroethenyl)-2,2-dimethylcyclopropanecarboxylate and (R)-(cyano)(3-phenoxyphenyl)methyl (1S,cis)-3-(2,2-dichloroethenyl)-2,2-dimethylcyclopropanecarboxylate]	5.1	218.8	2.5	110.9	9.0	14.9	7.2	2.03	37.6	16.4	1.0-1.5	4.2-6.1	1.62-1.86 parts per million	5.3-8.8	1.39-21.15 parts per million	2.5-9.8	.22-.38 parts per million	9.8-16.1	substantially more active than permethrin	–
CC1(C)[C@H](C(=O)O[C@H](C#N)c2cccc(Oc3ccccc3)c2)[C@@H]1C=C(Cl)Cl [1R,cis-α-S isomer, (S)-(cyano)(3-phenoxyphenyl)methyl (1R,cis)-3-(2,2-dichloroethenyl)-2,2-dimethylcyclopropanecarboxylate]	–	–	–	–	–	–	–	–	–	–	–	–	–	–	–	–	–	–	–	the more active of the disclosed diastereomers
